The record followed here is patent publication US10676438B2, “KCNQ2-5 channel activator” (Ono Pharmaceutical Co., Ltd., priority 2014, dated 2020).

Series [1] can be described thus: Evaluation of stability in human liver microsome. It is filed as in vitro ADME. The note with it: 5 μmol/L. The procedure:
A test compound (10 mmol/L DMSO solution, 5 μL) was diluted with 50% acetonitrile aqueous solution (195 μL) to prepare 0.25 mmol/L solution.
To a reactor vessel which had been warmed to 37° C. in advance, 0.5 mg/mL of human liver microsome (Xenotech) and 245 μL of 0.1 M phosphate buffer solution (pH 7.4) including NADPH-Co-factor (BD Biosciences) were added, followed by preincubation for five minutes. Then, the above-mentioned test compound solution (5 μL) was added so as to start reaction (final concentration: 5 μmol/L). Immediately after the start, 20 μL was harvested and added to 180 μL of acetonitrile including an internal standard substance (warfarin) to stop the reaction. This solution (20 μL) was stirred with 180 μL of 50% acetonitrile aqueous solution on a plate equipped with a deproteinization filter. Then, the resulting mixture solution was subjected to suction filtration. The filtrate was adopted as a standard sample.
The above-mentioned reaction solution was incubated at 37° C. for 15 minutes, and 20 μL of the solution was added to 180 μL of cooled acetonitrile (including warfarin that is an internal standard substance) to stop the reaction. This solution (20 μL) was stirred with 180 μL of 50% acetonitrile aqueous solution on a plate equipped with a deproteinization filter, and then the resulting mixture solution was subjected to suction filtration. The filtrate was adopted as a reaction sample.
Residual rate (%) was obtained as follows: 1 μL of the sample solution was infused into LC-MS/MS (Discovery Max manufactured by Thermo Scientific), and a quotient obtained by dividing a peak area ratio of the reaction sample (peak area of test compound/peak area of internal standard substance) was divided by the peak area ratio of the standard sample was multiplied by 100.

Series [2] in a line: Solubility test (DMSO precipitation method, Pharmacopoeia of Japan elution test second solution). Type of series: physicochemical. The following applies: aqueous buffer, kinetic from dmso stock; Pharmacopoeia of Japan elution test second solution pH=6.8, room temperature, five hours; quantitation range 5 to 100 μM. As to the method:
A calibration curve solution was prepared by diluting a test substance (10 mM DMSO solution) with acetonitrile and adding acetonitrile including an internal standard substance (candesartan) so as to be 0.1, 0.4, and 2 μM.
Sample solution was prepared as follows: 5 μL of the compound of the present invention (10 mM DMSO solution) was added to 495 μL of the Pharmacopoeia of Japan elution test second solution (pH=6.8), and the resulting mixture was stirred at room temperature for five hours. Then, the solution was placed into a solubility filter plate and subjected to suction filtration. The filtrate (20 μL) was diluted with acetonitrile, followed by adding acetonitrile including an internal standard substance ([…]).
The calibration curve and sample solutions in the amount of 5 μL were infused into LC-MS/MS (Discovery Max manufactured by Thermo Scientific) and subjected to quantitation (quantitation range: 5 to 100 μM).

In series [3] the target is Human KCNQ2/3 channel (Homo sapiens (Human), UniProt O43525+O43526). The series can be described thus: Opening action with respect to KCNQ2/3 channel by depolarization stimulation (thallium influx, FLIPR). It is filed as cell-based. The following applies: concentration giving 50% of maximum reaction of retigabine (10 μM); human KCNQ2/3 expression CHO-DHFR- cells; 5 mM potassium and 0.5 mM thallium; read-out: KCNQ2/3 ECrtg50. The procedure:
Human KCNQ2/3 expression cells (CHO-DHFR-cells) were seeded in each well of 384 well plate (collagen-coated, black, clear bottom) at 0.5×10^4 cells/50 μL per well, and cultured in a MEM ALPHA medium (containing 10 vol % inactivated (56° C., 30 min) Fetal Bovine Serum and 100 IU/mL Penicillin—100 μg/mL Streptomycin—2 mM L-Glutamine) at 37° C. in 5% CO2 for 18 to 24 hours. The medium in the plate was removed. Then, incubation (room temperature, 60 minutes, light-shielded) was carried out in a loading buffer (prepared by the method described in the manual of FluxOR Thallium Detection Kit (Invitrogen, F10016, F10017)). KCNQ2/3 channel opening action (thallium influx into cells) by the depolarization stimulation (5 mM potassium and 0.5 mM thallium) was measured by FLIPR TETRA (Molecular Devices). The compound of the present invention had been treated five minutes before the depolarization stimulation, and the reaction induced by the depolarization stimulation was measured over time for 180 seconds. The channel opening action of the compound of the present invention was evaluated based on the change amount of the fluorescence intensity from the time before the depolarization stimulation to the time after the passage of 180 seconds. Thus, the concentration (ECrtg50) satisfying 50% of the fluorescence intensity change of maximum reaction (at the time of 10 μM-treatment) of retigabine under this experiment condition was calculated.

For series [4], the system named is urinary bladder extracted from rat. As to the kind of experiment: Relaxing action on urinary bladder extracted from rat (rat Magnus test). The following applies: concentration at which tension change rate is -20%; carbachol 1 μM-induced contraction of rat urinary bladder strips. The procedure:
Female Jcl Wistar rats (CLEA Japan, Inc., body weight in use: 170 to 200 g) were anesthetized by intraperitoneal administration of about 40 mg/kg of pentobarbital (Somnopentyl, Schering Plough Animal Health Corporation), and killed by bloodletting, followed by abdominal incision to extract the urinary bladder. Immediately, the extracted urinary bladder was immersed in ice-cooled Krebs buffer (Krebs Ringer bicarbonate buffer (Sigma-Aldlich Co.) containing sodium hydrogencarbonate (final concentration: 15 mM) and calcium chloride (final concentration: 2.5 mM)) which had been saturated with a mixed gas (95% O2, 5% CO2).
The urinary bladder bodies were cut in the longitudinal direction to prepare strip specimens (about 10×3 mm) on ice. Immediately, the prepared specimens were suspended in a Magnus tube with 500 mg of tension loaded. The tube was filled with Krebs buffer (37° C.) aerated with a mixed gas. Note here that specimens were prepared within 24 hours after extraction of the tissue.
When one hour or more had passed after the specimen was suspended, 2.5M KCl was added so that the final concentration became 100 mM, specimens showing contraction reaction were used.
Carbachol (a contraction-inducing substance) at the concentration of contraction of 1 μM was used to induce contraction. […] After the contraction reaction was stabilized, a physiological salt solution or the compound of the present invention was added in a cumulative manner from low concentration such that the final concentration became 1, 10, 100 nM, 1 and 10 μM.
The tension (mg) of the extracted urinary bladder was employed as an evaluation parameter. The tension was read by using analysis software WAVE THERMO 1000. Tension after addition of the contraction-inducing substance was set to 0%. The change rate of the tension after addition of the compound of the present invention relative to the tension after addition of the contraction-inducing substance was defined as tension change rate (%). The tension change rate (%) was adopted as an evaluation indicator. The tension change rate (%) is calculated from the following formula. Tension change rate (%)={Tension after addition of compound of the present invention and the like (mg)−Tension before addition of contraction-inducing substance (mg)}/{Tension after addition of contraction-inducing substance (mg)−Tension before addition of contraction-inducing substance (mg)}×100−100
The value at which the tension change rate (%) was −20% was calculated as IC20, and the value was adopted as an indicator of the relaxing action of the extracted urinary bladder.

The mark [5] stands for this setting: human liver microsome 0.5 mg/mL, NADPH, 37° C., 15 minutes.

Values after ≈ are worked out from the molar mass of the structure shown.

For `CC(O)(c1cc(Cl)c(NC(=O)NCc2cc3cc(F)ccc3[nH]2)c(Cl)c1)C(F)(F)F` (stereo not shown) [Example 5 (13), 1-[2,6-dichloro-4-(1,1,1-trifluoro-2-hydroxy-2-propanyl)phenyl]-3-[(5-fluoro-1H-indole-2-yl)methyl]urea], the Residual rate in series [1] (human, 15 min, pH 7.4) came to 75%. In addition, in series [2], the solubility at 5 h was 81 µM (≈ 37.6 µg/mL). For the same molecule, the EC50 in series [3] was 600 nM.
The corresponding values for `CC(O)(c1cc(Cl)c(NC(=O)NC[C@@H]2CCCO2)c(Cl)c1)C(F)(F)F` (stereo partly drawn) [Example 5 (15), 1-[2,6-dichloro-4-(1,1,1-trifluoro-2-hydroxy-2-propanyl)phenyl]-3-[(2S)-tetrahydro-2-furanylmethyl]urea] are 97%, 90 µM (≈ 36.1 µg/mL) and 2300 nM.
The corresponding values for `CC(O)(c1cc(Cl)c(NC(=O)NCCC(F)(F)F)c(Cl)c1)C(F)(F)F` (stereo not shown) [Example 5 (19), 1-[2,6-dichloro-4-(1,1,1-trifluoro-2-hydroxy-2-propanyl)phenyl]-3-(3,3,3-trifluoropropyl)urea] are 100%, 76 µM (≈ 31.4 µg/mL) and 100 nM.
For `C[C@@H](NC(=O)Nc1c(Cl)cc(C(C)(O)C(F)(F)F)cc1Cl)C1CC1` (stereo partly drawn) [Example 5 (20), 1-[(1R)-1-cyclopropylethyl]-3-[2,6-dichloro-4-(1,1,1-trifluoro-2-hydroxy-2-propanyl)phenyl]urea], in series [1] (human, 15 min, pH 7.4), the Residual rate came out at 91%. The molecule further gave a solubility at 5 h in series [2] of 100 µM (≈ 38.5 µg/mL). Further, the EC50 in series [3] came out at 500 nM.
With `C[C@@](O)(c1cc(Cl)c(NC(=O)NCc2ccc(C#N)cc2)c(Cl)c1)C(F)(F)F` [Example 22 (15), 1-(4-cyanobenzyl)-3-{2,6-dichloro-4-[(2R)-1,1,1-trifluoro-2-hydroxy-2-propanyl]phenyl}urea], the Residual rate in series [1] (human, 15 min, pH 7.4) came to 93%. Also, the EC50 in series [3] was found to be 200 nM.
Molecule `C[C@@](O)(c1cc(Cl)c(NC(=O)NCc2ccc(Oc3ccc(F)cc3)cc2)c(Cl)c1)C(F)(F)F` [Example 22 (16), 1-{2,6-dichloro-4-[(2R)-1,1,1-trifluoro-2-hydroxy-2-propanyl]phenyl}-3-[4-(4-fluorophenoxyl)benzyl]urea] showed a Residual rate in series [1] (human, 15 min, pH 7.4) of 94%. Moreover, in series [3], the EC50 was 4 nM.
For `C[C@@](O)(c1cc(Cl)c(NC(=O)NCc2nc(C(F)(F)F)no2)c(Cl)c1)C(F)(F)F` [Example 23, 1-{2,6-dichloro-4-[(2R)-1,1,1-trifluoro-2-hydroxy-2-propanyl]phenyl}-3-{[3-(trifluoromethyl)-1,2,4-oxadiazole-5-yl]methyl}urea], in series [1] (setting [5]), the Residual rate worked out at 100%. The same molecule registered a solubility at 5 h in series [2] of 46 µM (≈ 21.5 µg/mL). The EC50 in series [3] was found to be 10 nM. This molecule also returned an IC20 in series [4] of 100 nM.
`C[C@](O)(c1cc(Cl)c(NC(=O)NCc2ccc(OCC(F)(F)F)nc2)c(Cl)c1)C(F)(F)F` [Example 25 (6), 1-{2,6-dichloro-4-[(2S)-1,1,1-trifluoro-2-hydroxy-2-propanyl]phenyl}-3-{[6-(2,2,2-trifluoroethoxy)-3-pyridinyl]methyl}urea] registered a Residual rate in series [1] (human, 15 min, pH 7.4) of 73%. Further, the concentration in solution in series [2] (solubility at 5 h) came to 40 µM (≈ 20.2 µg/mL). The EC50 in series [3] was 60 nM.
In series [1] (setting [5]), `C[C@](O)(c1cc(Cl)c(NC(=O)NCc2nc(C(F)(F)F)no2)c(Cl)c1)C(F)(F)F` [Example 26, 1-{2,6-dichloro-4-[(2S)-1,1,1-trifluoro-2-hydroxy-2-propanyl]phenyl}-3-{[3-(trifluoromethyl)-1,2,4-oxadiazole-5-yl]methyl}urea] came in with a Residual rate of 64%. The molecule further yielded a solubility at 5 h in series [2] of 59 µM (≈ 27.6 µg/mL). The EC50 in series [3] amounted to 40 nM. In series [4], this molecule gave a concentration for an effect of 20% (IC20) of 200 nM.
Regarding `O=C(NCc1nc(C(F)(F)F)no1)Nc1c(Cl)cc([C@@H](O)C(F)(F)F)cc1Cl` [Example 32 (1), 1-{2,6-dichloro-4-[(1R)-2,2,2-trifluoro-1-hydroxyethyl]phenyl}-3-{[3-(trifluoromethyl)-1,2,4-oxadiazole-5-yl]methyl}urea], the solubility at 5 h in series [2] amounted to 100 µM (≈ 45.3 µg/mL). Also, the EC50 in series [3] turned out to be 7 nM. In addition, in series [4], the concentration for an effect of 20% (IC20) worked out at 20 nM.
As to `O=C(NCc1nc(C(F)(F)F)no1)Nc1c(Cl)cc([C@H](O)C(F)(F)F)cc1Cl` [Example 35 (1), 1-{2,6-dichloro-4-[(1S)-2,2,2-trifluoro-1-hydroxyethyl]phenyl}-3-{[3-(trifluoromethyl)-1,2,4-oxadiazole-5-yl]methyl}urea], the Residual rate in series [1] (human, 15 min, pH 7.4) was 100%. Moreover, the concentration in solution in series [2] (solubility at 5 h) was 100 µM (≈ 45.3 µg/mL). The EC50 in series [3] is 8 nM. Also, the concentration for an effect of 20% (IC20) in series [4] came out at 20 nM.
`Cc1cc(C(O)C(F)(F)F)ccc1NC(=O)NCc1ccc(C(F)(F)F)cn1` (stereo not shown) [Example 60, 1-[2-methyl-4-(2,2,2-trifluoro-1-hydroxyethyl)phenyl]-3-{[5-(trifluoromethyl)-2-pyridinyl]methyl}urea] showed a Residual rate in series [1] (human, 15 min, pH 7.4) of 98%. Also, in series [3], the EC50 is 1700 nM.
The molecule `Cc1cc(C(O)C(F)(F)F)cc(Cl)c1NC(=O)NCc1ccc(C(F)(F)F)cn1` (stereo not shown) [Example 62, 1-[2-chloro-6-methyl-4-(2,2,2-trifluoro-1-hydroxyethyl)phenyl]-3-{[5-(trifluoromethyl)-2-pyridinyl]methyl}urea] showed a solubility at 5 h in series [2] of 71 µM (≈ 31.4 µg/mL). Further, the EC50 in series [3] was 60 nM.
Molecule `CC(O)(c1cc(Cl)c(NC(=O)NCc2ccc(C(F)(F)F)cn2)c(Cl)c1)C(F)F` (stereo not shown) [Example 75, 1-[2,6-dichloro-4-(1,1-difluoro-2-hydroxy-2-propanyl)phenyl]-3-{[5-(trifluoromethyl)-2-pyridinyl]methyl}urea] returned a Residual rate in series [1] (human, 15 min, pH 7.4) of 100%. Also, in series [3], the EC50 came out at 400 nM.
